Key:
[1] = system: Mouse melanoma cells (MM-4 cell line); assay: Cytotoxic effect of E2+85Rbe and antitumor drug added 24 hours apart; assay type: cell-based
Method: The effectiveness of the method of the invention that comprises administering antitumor drugs and ^85Rb-enriched rubidium salt of N-benzoyl-N-(4-toluenesulfonyl)-o-phenylenediamine of formula I was measured in the experiment. […] Both orders were tested: AD administered first (Scheme 2, below), and AD administered second (Scheme 1, below).
Materials and Methods: Mouse melanoma cells (MM-4 cell line) were seeded into 96-well plates (TPP, Italy), in DMEM (Biowest, France) supplemented with 10% newborn calf serum (Biowest, France) and […] gentamicin (Sigma, USA) at a seeding density of 5×10^4 cells/ml. The cells were then cultured in an incubator with a humidified atmosphere of 5% CO2 in air at 37° C. The experiment was carried out in accordance with the three schemes given below. The experiment was started 24 hours after the cells were seeded. For this purpose, the agents used in the method were introduced into the appropriate wells. The following schemes of introduction were used for the study:
Scheme 1) The ^85Rb-enriched rubidium salt of N-benzoyl-N′-(4-toluenesulfonyl)-o-phenylenediamine of formula I was introduced at the first stage in the following amounts: 2.0 μg/ml, 1.0 μg/ml, 0, 5 μg/ml, and one antitumor drug was introduced at the second stage (after 24 hours).
Scheme 2) An AD was introduced at the first stage at doses as indicated in Scheme 1 above and ^85Rb-enriched rubidium salt of N-benzoyl-N′-(4-toluenesulfonyl)-o-phenylenediamine of formula I was introduced at the second stage (after 24 hours) at the following doses: 2.0 μg/ml, 1.0 μg/ml, 0.5 μg/ml.
After all the agents were added into the wells, the cells were incubated at 37° C. and 5% CO2 for another 72 hours (96 hours in total after the cells were seeded).
As in example 2, the cytotoxic effect was determined as the percentage of the cell number with respect to the control after their treatment in accordance with the claimed method. The effects of the drugs were evaluated visually, which allowed us to examine the morphological pattern of the cytotoxic action of the drugs, and by staining the cells with crystal violet, followed by OD measurement at an excitation wavelength of 540 nm using a MultiSkan microplate spectrophotometer.
The effects of the complex action of various doses of the investigated substances were evaluated using the concept of synergistic, additive and antagonistic effects of the drugs, as for Example 2, and calculating CI as described in Example 2.
Each table sets forth the % of MM-4 cells that survived in the presence of the drug doses indicated in the in vitro experiments described above, expressed as a percentage of the cells in the control wells.

[2] = system: Mouse B16 melanoma cells (MM-4 cell line); assay: Cytotoxic/cytostatic activity of E2+85Rbe and antitumor drug added simultaneously; assay type: cell-based
Method: The effects of the complex action of various doses of the investigated substances were evaluated using the concept of synergistic, additive and antagonistic effects of the drugs. The mathematics are detailed below. […] The effects were calculated using the Chou-Talalay method according to the following equation (“CI” refers to the “combination index”) (see T.-C. […] Where both the ^85Rb-enriched rubidium salt (referred to as “E2+^85Rbe”) and an AD were administered, they were administered simultaneously.

## CN(C)/N=N/c1[nH]cnc1C(N)=O [dacarbazine]
[1]; dacarbazine 2.5 μg/ml alone, first stage
  % surviving MM-4 cells: 21 ± 2.4%
[1]; dacarbazine 2.5 μg/ml alone, second stage
  % surviving MM-4 cells: 40.7 ± 0.7%
[1]; dacarbazine 5 μg/ml alone, first stage
  % surviving MM-4 cells: 18.1 ± 0.2%
[1]; dacarbazine 5 μg/ml alone, second stage
  % surviving MM-4 cells: 30 ± 2.4%
[1]; dacarbazine 10 μg/ml alone, first stage
  % surviving MM-4 cells: 11.6 ± 3%
[1]; dacarbazine 10 μg/ml alone, second stage
  % surviving MM-4 cells: 19 ± 4%
[1]; dacarbazine 20 μg/ml alone, first stage
  % surviving MM-4 cells: 7.8 ± 0.5%
[1]; dacarbazine 20 μg/ml alone, second stage
  % surviving MM-4 cells: 12.9 ± 2.9%
[1]; dacarbazine 40 μg/ml alone, first stage
  % surviving MM-4 cells: 3.5 ± 0.7%
[1]; dacarbazine 40 μg/ml alone, second stage
  % surviving MM-4 cells: 8.4 ± 1.2%
[2]; dacarbazine 2.5 μg/ml alone
  % surviving MM-4 cells: 21 ± 2.4%
[2]; dacarbazine 5 μg/ml alone
  % surviving MM-4 cells: 18.1 ± 0.2%
[2]; dacarbazine 10 μg/ml alone
  % surviving MM-4 cells: 11.6 ± 3%
[2]; dacarbazine 20 μg/ml alone
  % surviving MM-4 cells: 7.8 ± 0.5%
[2]; dacarbazine 40 μg/ml alone
  % surviving MM-4 cells: 3.5 ± 0.7%

## COc1cccc2c1C(=O)c1c(O)c3c(c(O)c1C2=O)C[C@@](O)(C(=O)CO)C[C@@H]3O[C@H]1C[C@H](N)[C@H](O)[C@H](C)O1 [doxorubicin]
[1]; doxorubicin 150 ng/ml alone, first stage
  % surviving MM-4 cells: 14.4 ± 1.1%
[1]; doxorubicin 150 ng/ml alone, second stage
  % surviving MM-4 cells: 35.5 ± 0.8%
[1]; doxorubicin 175 ng/ml alone, first stage
  % surviving MM-4 cells: 13 ± 0.1%
[1]; doxorubicin 200 ng/ml alone, first stage
  % surviving MM-4 cells: 9.1 ± 1.1%
[1]; doxorubicin 200 ng/ml alone, second stage
  % surviving MM-4 cells: 24.8 ± 5.5%
[1]; doxorubicin 300 ng/ml alone, first stage
  % surviving MM-4 cells: 3.1 ± 0.1%
[1]; doxorubicin 300 ng/ml alone, second stage
  % surviving MM-4 cells: 12.2 ± 0.5%
[1]; doxorubicin 500 ng/ml alone, first stage
  % surviving MM-4 cells: 0%
[1]; doxorubicin 500 ng/ml alone, second stage
  % surviving MM-4 cells: 5.3 ± 0.9%
[2]; doxorubicin 150 ng/ml alone
  % surviving MM-4 cells: 14.4 ± 1.1%
[2]; doxorubicin 175 ng/ml alone
  % surviving MM-4 cells: 13 ± 0.1%
[2]; doxorubicin 200 ng/ml alone
  % surviving MM-4 cells: 9.1 ± 1.1%
[2]; doxorubicin 300 ng/ml alone
  % surviving MM-4 cells: 3.1 ± 0.1%
[2]; doxorubicin 500 ng/ml alone
  % surviving MM-4 cells: 0%

## CC(=O)O[C@H]1C(=O)[C@@]2(C)[C@H]([C@H](OC(=O)c3ccccc3)[C@]3(O)C[C@H](OC(=O)[C@H](O)[C@@H](NC(=O)c4ccccc4)c4ccccc4)C(C)=C1C3(C)C)[C@]1(OC(C)=O)CO[C@@H]1C[C@@H]2O [paclitaxel]
[1]; paclitaxel 3 ng/ml alone, first stage
  % surviving MM-4 cells: 80 ± 2.3%
[1]; paclitaxel 3 ng/ml alone, second stage
  % surviving MM-4 cells: 87.7 ± 6.7%
[1]; paclitaxel 7.5 ng/ml alone, first stage
  % surviving MM-4 cells: 33.4 ± 1.4%
[1]; paclitaxel 7.5 ng/ml alone, second stage
  % surviving MM-4 cells: 49 ± 1%
[1]; paclitaxel 15 ng/ml alone, second stage
  % surviving MM-4 cells: 37 ± 4.5%
[1]; paclitaxel 30 ng/ml alone, first stage
  % surviving MM-4 cells: 7 ± 0.8%
[1]; paclitaxel 30 ng/ml alone, second stage
  % surviving MM-4 cells: 29.2 ± 4.4%
[1]; paclitaxel 3 μg/ml alone, first stage
  % surviving MM-4 cells: 1.9 ± 0.2%
[2]; paclitaxel 3 ng/ml alone
  % surviving MM-4 cells: 80 ± 2.3%
[2]; paclitaxel 7.5 ng/ml alone
  % surviving MM-4 cells: 33.4 ± 1.4%
[2]; paclitaxel 30 ng/ml alone
  % surviving MM-4 cells: 7 ± 0.8%
[2]; paclitaxel 3 μg/ml alone
  % surviving MM-4 cells: 1.9 ± 0.2%

## CCC1=C[C@@H]2CN(C1)Cc1c([nH]c3ccccc13)[C@@](C(=O)OC)(c1cc3c(cc1OC)N(C)[C@H]1[C@@](O)(C(=O)OC)[C@H](OC(C)=O)[C@]4(CC)C=CCN5CC[C@]31[C@@H]54)C2 [vinorelbine]
[1]; vinorelbine 1 ng/ml alone, first stage
  % surviving MM-4 cells: 10 ± 0.1%
[1]; vinorelbine 1 ng/ml alone, second stage
  % surviving MM-4 cells: 26 ± 2.5%
[1]; vinorelbine 5 ng/ml alone, first stage
  % surviving MM-4 cells: 9.5 ± 0.5%
[1]; vinorelbine 5 ng/ml alone, second stage
  % surviving MM-4 cells: 17.9 ± 0.9%
[1]; vinorelbine 25 ng/ml alone, first stage
  % surviving MM-4 cells: 2 ± 0.8%
[1]; vinorelbine 25 ng/ml alone, second stage
  % surviving MM-4 cells: 7.9 ± 0.5%
[1]; vinorelbine 50 ng/ml alone, first stage
  % surviving MM-4 cells: 2 ± 1%
[1]; vinorelbine 50 ng/ml alone, second stage
  % surviving MM-4 cells: 6.4 ± 0.4%
[1]; vinorelbine 200 ng/ml alone, first stage
  % surviving MM-4 cells: 1%
[1]; vinorelbine 200 ng/ml alone, second stage
  % surviving MM-4 cells: 5.6 ± 0.6%
[2]; vinorelbine 1 ng/ml alone
  % surviving MM-4 cells: 10 ± 0.1%
[2]; vinorelbine 5 ng/ml alone
  % surviving MM-4 cells: 9.5 ± 0.5%
[2]; vinorelbine 25 ng/ml alone
  % surviving MM-4 cells: 2 ± 0.8%
[2]; vinorelbine 50 ng/ml alone
  % surviving MM-4 cells: 2 ± 1%
[2]; vinorelbine 200 ng/ml alone
  % surviving MM-4 cells: 1%

From patent US11286236B2, “Compound, agent and composition for the suppression of cancer growth” (Vector Vitale IP LLC, priority 2018, dated 2022)
